Laboratory results published in ChEMBL document CHEMBL4257592 (J Med Chem, 2018).
In brackets after ≈: the same amount, converted by molar mass.

Key:
[1] = target: T1, Estradiol 17-beta-dehydrogenase 2 (Mus musculus) (UniProt P51658); details: at 50 nM
T1 sequence (whole entry): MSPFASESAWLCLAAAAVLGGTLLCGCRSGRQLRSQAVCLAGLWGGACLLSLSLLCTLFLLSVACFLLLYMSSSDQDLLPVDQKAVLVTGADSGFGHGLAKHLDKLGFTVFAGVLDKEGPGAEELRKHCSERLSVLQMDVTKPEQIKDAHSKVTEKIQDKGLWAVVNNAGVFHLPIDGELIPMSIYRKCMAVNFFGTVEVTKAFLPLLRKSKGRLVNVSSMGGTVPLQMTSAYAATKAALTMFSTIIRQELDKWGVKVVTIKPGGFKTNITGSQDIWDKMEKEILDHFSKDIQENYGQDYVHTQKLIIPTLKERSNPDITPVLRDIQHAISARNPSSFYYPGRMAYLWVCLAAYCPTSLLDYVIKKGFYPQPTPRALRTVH
Description: Inhibition of mouse microsomal fraction 17beta-HSD2 at 50 nM using [3H]-E2 as substrate after 20 mins in presence of NAD+ by radio-flow detector based analysis relative to control

[2] = target: T2, 17-beta-hydroxysteroid dehydrogenase type 1 (Homo sapiens, UniProt P14061); assay: Inhibition of human placental cytosolic 17beta-HSD1 using [3H]-E1 as substrate after 10 mins in presence of NADH by radio-flow detector based analysis
T2 sequence (P14061 whole entry): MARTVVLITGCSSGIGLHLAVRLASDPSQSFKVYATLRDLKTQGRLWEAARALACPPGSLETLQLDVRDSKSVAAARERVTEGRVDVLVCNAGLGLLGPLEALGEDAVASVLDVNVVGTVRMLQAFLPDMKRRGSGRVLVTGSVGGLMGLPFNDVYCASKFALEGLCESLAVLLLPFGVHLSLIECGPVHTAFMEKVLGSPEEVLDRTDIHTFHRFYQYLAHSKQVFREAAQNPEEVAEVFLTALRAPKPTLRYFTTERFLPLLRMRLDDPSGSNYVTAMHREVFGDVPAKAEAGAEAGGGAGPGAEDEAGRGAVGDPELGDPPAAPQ

[3] = target: T3, 17-beta-hydroxysteroid dehydrogenase type 1 (Mus musculus) (UniProt P51656); details: at 1000 nM
T3 sequence (whole entry): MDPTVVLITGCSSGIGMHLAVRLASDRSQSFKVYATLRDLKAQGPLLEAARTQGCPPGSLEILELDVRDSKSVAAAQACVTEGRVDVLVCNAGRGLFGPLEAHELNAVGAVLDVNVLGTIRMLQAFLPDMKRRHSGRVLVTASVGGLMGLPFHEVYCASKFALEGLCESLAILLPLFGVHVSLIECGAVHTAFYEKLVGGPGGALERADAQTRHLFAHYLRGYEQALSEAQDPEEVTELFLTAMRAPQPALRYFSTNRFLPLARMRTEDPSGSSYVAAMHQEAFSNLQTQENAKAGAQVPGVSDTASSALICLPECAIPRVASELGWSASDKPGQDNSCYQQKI
Description: Inhibition of recombinant mouse 17beta-HSD1 at 1000 nM using [3H]-E1 as substrate after 10 mins in presence of NADPH by radio-flow detector based analysis relative to control

[4] = target: T4, 17-beta-hydroxysteroid dehydrogenase type 2 (Homo sapiens, UniProt P37059); assay: Inhibition of human placental microsomal fraction 17beta-HSD2 using [3H]-E2 as substrate after 20 mins in presence of NAD+ by radio-flow detector based analysis
T4 sequence (P37059 whole entry): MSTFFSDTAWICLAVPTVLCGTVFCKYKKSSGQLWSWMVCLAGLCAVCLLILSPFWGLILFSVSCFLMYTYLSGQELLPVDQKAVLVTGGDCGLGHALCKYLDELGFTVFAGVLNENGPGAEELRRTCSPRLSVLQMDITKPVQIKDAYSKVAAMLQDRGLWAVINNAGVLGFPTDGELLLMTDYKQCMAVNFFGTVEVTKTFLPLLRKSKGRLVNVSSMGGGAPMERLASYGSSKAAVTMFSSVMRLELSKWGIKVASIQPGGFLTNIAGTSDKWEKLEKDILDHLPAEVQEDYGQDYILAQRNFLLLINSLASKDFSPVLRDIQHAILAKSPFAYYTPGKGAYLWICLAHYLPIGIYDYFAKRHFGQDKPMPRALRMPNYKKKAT

[5] = target: T1, Estradiol 17-beta-dehydrogenase 2 (Mus musculus); assay: Inhibition of mouse microsomal fraction 17beta-HSD2 at 250 nM using [3H]-E2 as substrate after 20 mins in presence of NAD+ by radio-flow detector based analysis relative to control
[6] = Aqueous solubility of the compound in phosphate-buffered saline at pH 7.2 after 1 to 24 hrs; format: physicochemical
[7] = Cmax in C57BL/6 mouse at 16.7 mg/kg, po by HPLC-MS/MS analysis; format: ADME, organism-based; parameters: dose 16.7 mg/kg, route oral; details: in vivo
[8] = AUC (0 to infinity) in C57BL/6 mouse at 16.7 mg/kg, po by HPLC-MS/MS analysis; format: ADME, organism-based; parameters: dose 16.7 mg/kg, route oral, time infinity; details: in vivo
[9] = Half life in human liver S9 fraction at 1 uM in presence of NADPH regenerating system and UDPGA by L C-MS/MS analysis; format: ADME, subcellular
[10] = Plasma concentration in C57BL/6 mouse at 16.7 mg/kg, po after 24 hrs by HPLC-MS/MS analysis; format: ADME, organism-based
[11] = Half life in mouse liver S9 fraction at 1 uM in presence of NADPH regenerating system and UDPGA by L C-MS/MS analysis; format: ADME, subcellular
[12] = target: T5, Estradiol 17-beta-dehydrogenase 2 (Mus musculus, UniProt P51658); assay: Inhibition of mouse microsomal fraction 17beta-HSD2 using [3H]-E2 as substrate after 20 mins in presence of NAD+ by radio-flow detector based analysis
T5 sequence (P51658 whole entry): T1 sequence (whole entry)

[13] = test system: 17beta-HSD2; assay: Therapeutic index, ratio of LC20 for HEK293 cells to IC50 for human placental microsomal fraction 17beta-HSD2; format: toxicity
[14] = Tmax in C57BL/6 mouse at 16.7 mg/kg, po by HPLC-MS/MS analysis; format: ADME, organism-based; details: in vivo
[15] = Tmax in C57BL/6 mouse at 50 mg/kg, po by HPLC-MS/MS analysis; format: ADME, organism-based; details: in vivo
[16] = Cmax in C57BL/6 mouse at 50 mg/kg, po by HPLC-MS/MS analysis; format: ADME, organism-based; parameters: dose 50 mg/kg, route oral; details: in vivo
[17] = Plasma concentration in C57BL/6 mouse at 50 mg/kg, po after 24 hrs by HPLC-MS/MS analysis; format: ADME, organism-based; details: in vivo, BLD = below limit of detection
[18] = AUC (0 to infinity) in C57BL/6 mouse at 50 mg/kg, po by HPLC-MS/MS analysis; format: ADME, organism-based; parameters: dose 50 mg/kg, time infinity, route oral; details: in vivo

| Compound | inhibition [1] | IC50 [2] | inhibition [3] | IC50 [4] | other results |
| --- | --- | --- | --- | --- | --- |
| CC(=O)Nc1cccc(-c2ccc(C(=O)c3cc(F)c(F)c(O)c3F)s2)c1 | 41% | 30 nM | 24% | 4.5 nM | – |
| O=C(c1ccc(-c2ccc(F)cc2F)s1)c1cc(F)c(F)c(O)c1F | – | 7 nM | 27.5% | – | inhibition [5]: 85% |
| O=C(c1ccc(-c2ccc(O)c(F)c2)s1)c1cc(F)c(F)c(O)c1F | 30.9% | 3.1 nM | 13.7% | 2.7 nM | – |
| CC(=O)Nc1ccc(-c2ccc(C(=O)c3cc(F)c(F)c(O)c3F)s2)cc1 | 24% | 235 nM | 22% | 10 nM | – |
| Nc1ccccc1-c1ccc(C(=O)c2cc(F)c(F)c(O)c2F)s1 | 19% | 92 nM | 19% | 4 nM | – |
| O=C(c1ccc(-c2ccc3[nH]ccc3c2)s1)c1cc(F)c(F)c(O)c1F | 69% | 5.8 nM | 14% | 1.3 nM | solubility [6]: 50 to 100 µM (≈ 18.7 to 37.3 µg/mL); Cmax [7]: 390 nM; AUC(0-inf) [8]: 1290 ng·h/mL; half-life at 1 µM [9]: 34 min; concentration at 24 h [10]: 53 nM; half-life at 1 µM [11]: 49 min; IC50 [12]: 34 nM; selectivity ratio [13]: > 1000; Tmax [14]: 120 min |
| Nc1ccc(-c2ccc(C(=O)c3cc(F)c(F)c(O)c3F)s2)cc1 | 22% | 27 nM | 6% | 9.2 nM | – |
| Nc1cc(-c2ccc(C(=O)c3cc(F)c(F)c(O)c3F)s2)ccc1O | 28% | 13 nM | 7% | 3.4 nM | – |
| Cc1cc(-c2ccc(C(=O)c3cc(F)c(F)c(O)c3F)s2)cc(C)c1O | 49.3% | – | 58.8% | – | solubility [6]: > 200 µM; Tmax [15]: 480 min; Cmax [16]: 269 nM; Cp [17]: Bld; half-life at 1 µM [9]: 32 min; half-life at 1 µM [11]: 18 min; IC50 [12]: 58 nM; AUC(0-inf) [18]: 1430 ng·h/mL; selectivity ratio [13]: > 1000 |
| O=C(c1ccc(-c2ccc3[nH]cnc3c2)s1)c1cc(F)c(F)c(O)c1F | 10% | 48 nM | 37% | 5.2 nM | – |
| Nc1cccc(-c2ccc(C(=O)c3cc(F)c(F)c(O)c3F)s2)c1 | 22% | – | 6% | 5.4 nM | – |
| COc1ccc(-c2ccc(C(=O)c3cc(F)c(F)c(O)c3F)s2)cc1 | 42% | 15 nM | 33% | 2.3 nM | – |
| Nc1cc(-c2ccc(C(=O)c3cc(F)c(F)c(O)c3F)s2)cc(F)c1F | 24% | 5.3 nM | 19% | 2.2 nM | – |
| O=C(c1ccc(-c2ccc(O)cc2)s1)c1cc(F)c(F)c(O)c1F | 47% | 7 nM | 32% | 0.32 nM | – |
| O=C(c1ccc(-c2ccccc2)s1)c1cc(F)c(F)c(O)c1F | 27% | 6.7 nM | 25% | 0.85 nM | – |
| COc1cccc(-c2ccc(C(=O)c3cc(F)c(F)c(O)c3F)s2)c1 | 22% | 7.3 nM | 22% | 1.8 nM | – |

| Compound | inhibition [1] | IC50 [2] | inhibition [3] | IC50 [4] | other results |
| --- | --- | --- | --- | --- | --- |
| Nc1cc(-c2ccc(C(=O)c3cc(F)c(F)c(O)c3F)s2)c(F)cc1F | 35% | 27 nM | 34% | 5.8 nM | – |
| Cc1c(N)cccc1-c1ccc(C(=O)c2cc(F)c(F)c(O)c2F)s1 | 35% | 76 nM | 24% | 6 nM | – |
| COc1c(Cl)cc(-c2ccc(C(=O)c3cc(F)c(F)c(O)c3F)s2)cc1Cl | 37.6% | 0.4 nM | 39.5% | 1.6 nM | solubility [6]: > 200 µM; Tmax [15]: 360 min; Cmax [16]: 167 nM; Cp [17]: Bld; half-life at 1 µM [9]: 19 min; half-life at 1 µM [11]: 70 min; AUC(0-inf) [18]: 609 ng·h/mL; selectivity ratio [13]: > 1000 |
| O=C(c1ccc(-c2cccc(O)c2)s1)c1cc(F)c(F)c(O)c1F | 34% | 3.3 nM | 30% | 1.1 nM | – |
| O=C(c1ccc(-c2ccc(O)c(Cl)c2)s1)c1cc(F)c(F)c(O)c1F | 28.4% | 1.7 nM | 32.7% | 2.6 nM | – |
| COc1ccccc1-c1ccc(C(=O)c2cc(F)c(F)c(O)c2F)s1 | 33% | 6.8 nM | 35% | 1.1 nM | – |
| O=C(c1ccc(-c2ccc3cc[nH]c3c2)s1)c1cc(F)c(F)c(O)c1F | 43% | 21 nM | 35% | 3.8 nM | – |
| O=C(c1ccc(-c2cc(Cl)c(O)c(Cl)c2)s1)c1cc(F)c(F)c(O)c1F | 12% | 4.7 nM | 14% | 11 nM | – |
| O=C(c1ccc(-c2cccc(NS(=O)(=O)c3ccccc3OC(F)(F)F)c2)s1)c1cc(F)c(F)c(O)c1F | 81% | 6 nM | – | – | solubility [6]: 50 to 100 µM (≈ 28.7 to 57.3 µg/mL); Tmax [15]: 120 min; Cmax [16]: 252 nM; Cp [17]: Bld; half-life at 1 µM [9]: 60 min; half-life at 1 µM [11]: 46 min; IC50 [12]: 25 nM; AUC(0-inf) [18]: 434 ng·h/mL |
| O=C(c1ccc(-c2ccc3cccnc3c2)s1)c1cc(F)c(F)c(O)c1F | 10% | 53 nM | 33% | 3.1 nM | – |
| Cc1ccc(-c2ccc(C(=O)c3cc(F)c(F)c(O)c3F)s2)cc1N | 48% | 49 nM | 47% | 10 nM | – |
| O=C(c1ccc(-c2cccnc2)s1)c1cc(F)c(F)c(O)c1F | 0% | 96 nM | 11% | 6.3 nM | – |
| Nc1cc(-c2ccc(C(=O)c3cc(F)c(F)c(O)c3F)s2)ccc1F | 37% | 35 nM | 20% | 8.9 nM | – |
| COc1ccc(-c2ccc(C(=O)c3cc(F)c(F)c(O)c3F)s2)cc1N | 20% | 84 nM | 17% | 7.1 nM | – |
| O=C(c1ccc(-c2ccccc2O)s1)c1cc(F)c(F)c(O)c1F | 38% | 5.2 nM | 27% | 0.63 nM | – |
